The series can be described thus: gradient 5% acetonitrile 3 min, to 50% in 2 min, to 85% in 15 min, held 3 min, 100 µL/min. The following applies: column: Zorbax Extend-C18 2.1 x 50 mm; eluents: water / acetonitrile, 0.1% formic acid. An outline of the steps: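 Pure standards were analyzed in mixtures of ~100 molecules using HPLC coupled to a quadrupole time-of-flight mass spectrometer, in both positive and negative ionization mode. Separation used a Zorbax Extend-C18 column (2.1 × 50 mm, 1.8 μm) at 100 μL/min, with water and acetonitrile each containing 0.1% formic acid. Dead and dwell volumes were 40 μL and 900 μL, and data were collected over 3 months. Retention time was read from computationally picked adduct peaks, each inspected manually.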
On to `O=C(Cc1c[nH]c2ccccc12)N1CCCN(c2cc(-c3ccc(Br)cc3)[nH]n2)CC1`, for which the RP-LC retention time came to 722 s.

With `O=C(C1=CN(c2ccccc2)c2ccccc2S1(=O)=O)N1CCCCC1`, the RP-LC retention time was determined as 821 s.

`CSc1ccc(CNC(=O)COc2cc(C)nc(N3CCCC3)n2)cc1`: the RP-LC retention time amounted to 648 s.

`CCNc1cc(N2CCC(CCC(=O)NCc3ccc(OC)cc3)CC2)ncn1` came in with an RP-LC retention time of 568 s.

Compound `Cc1ccc(S(=O)(=O)N2CCCC2)cc1-c1nnc(-c2ccccc2Cl)o1` displayed an RP-LC retention time of 1070 s.

In the case of `Cc1ccc(N2CC(c3nc(-c4ccc5c(c4)OCO5)no3)CC2=O)c(C)c1` (centres undefined), the RP-LC retention time worked out at 911 s.

In the case of `Cc1ccc(C)c(CNC(=O)C2(c3ccc(NS(C)(=O)=O)cc3)CCCCC2)c1`, the RP-LC retention time came out at 973 s.

`Cc1ccc(N2CCN(S(=O)(=O)c3ccc(-c4nnc(C5CC5)o4)o3)CC2)cc1` returned an RP-LC retention time of 1040 s.

`COc1ccc(C)cc1NC(=O)NCCn1c(C(F)(F)F)nc2cccnc21`: the RP-LC retention time came out at 807 s.

Take `COCCN1C(=O)Cc2ccccc2C1C(=O)N1CCN(c2cccc(Cl)c2)CC1` (centres undefined): the RP-LC retention time worked out at 849 s.

Compound `O=S(=O)(c1ccccc1Cl)N1CCc2nc(-c3ccc(F)cc3)ncc2C1` showed an RP-LC retention time of 1100 s.

The compound `O=C(NCCc1ccccn1)C1(CCO)CCN(c2ncccn2)C1` (centres undefined) returned an RP-LC retention time of 526 s.

`Cc1cccn2cc(C(=O)NCc3cccc(F)c3)nc12` displayed an RP-LC retention time of 645 s.

Turning to `Cc1oc2ccn(C)c(=O)c2c1C(=O)NCc1cccc(Br)c1`, the RP-LC retention time came to 947 s.

Consider `O=C(c1ccco1)N1CCC(n2c(-c3ccoc3)nc3cccnc32)C1` (centres undefined), for which the RP-LC retention time was 650 s.

In turn, `O=S(=O)(c1cc(F)ccc1F)N1CCc2nc(-c3ccccc3)ncc2C1` displayed an RP-LC retention time of 1070 s.

The compound `Cc1ccc(-c2nnc(Cc3nc(-c4cccc(C(F)(F)F)c4)no3)o2)cc1C` registered an RP-LC retention time of 1220 s.

In turn, `CCNC(=O)C1CCCN(S(=O)(=O)c2c[nH]c(C(=O)N3CCCCCC3)c2)C1` (centres undefined) returned an RP-LC retention time of 699 s.

For the compound `COc1ccc(NC(=O)N2CCC(n3c(-c4ccoc4)nc4cccnc43)C2)cc1` (centres undefined), the RP-LC retention time worked out at 698 s.

`CC(C)c1nc(C2Cc3ccccc3N2C(=O)NCc2ccco2)no1` (centres undefined): the RP-LC retention time amounted to 889 s.

Compound `CCC(=O)N1CCc2ccc(C(=O)NC3CCCCC3)cc21` had an RP-LC retention time of 800 s.

With `Cc1cccc(N2CCN(Cc3nc(-c4ccc(N5CCC(C)CC5)nc4)no3)CC2)c1`, the RP-LC retention time came out at 1110 s.

As to `COc1cccc(C2Cn3nnc(-c4nc(-c5ccc(OC(F)(F)F)cc5)no4)c3CO2)c1` (centres undefined), the RP-LC retention time is 1310 s.

`O=C(Cc1ccccc1)N1CCN(c2cc(-c3ccccc3)[nH]n2)CC1` had an RP-LC retention time of 774 s.

`Cc1ccccc1NC(=O)C1CCCN(C(=O)c2nn(C)c3c2CN(C(=O)CC2CCCC2)CC3)C1` (centres undefined) had an RP-LC retention time of 877 s.

Consider `COc1ccc(OC)c(NC(=O)CN2CCc3[nH]c4c(C)c(C)ccc4c(=O)c3C2)c1`, for which the RP-LC retention time was 642 s.

As to `Cc1c(-c2nnc(C(=O)NCCCN3CCOCC3)o2)oc2c(C)cccc12`, the RP-LC retention time is 696 s.

`COc1ccc(-c2nnc(COc3cccc(NC(=O)c4ccccn4)c3)o2)cc1` returned an RP-LC retention time of 941 s.

Regarding `CC(C)CNC(=O)C1COC2(CCCCC2)N1C(=O)c1ccccc1C(F)(F)F` (centres undefined), the RP-LC retention time was 938 s.

`COc1cc(NC(=O)CN2C(=O)COc3ccc(C(=O)N(C)C)cc32)cc(OC)c1` had an RP-LC retention time of 689 s.

Compound `CCCOc1nc2ccccc2nc1N1CCCC(C(=O)NCc2ccc(Cl)cc2)C1` (centres undefined) yielded an RP-LC retention time of 1270 s.

In the case of `Cc1nn(C(C)C(=O)NCCCN2CCN(C)CC2)c(=O)c2c1sc1ccccc12` (centres undefined), the RP-LC retention time came out at 592 s.

Compound `CN1C(=O)NC2(CCN(S(=O)(=O)c3cccnc3)CC2)C1=O` showed an RP-LC retention time of 589 s.

`Cc1nc(-c2cn(C)c3ncccc23)sc1C(=O)NCc1ccccc1` displayed an RP-LC retention time of 863 s.

For the compound `CCc1nc2cc(N3CCC(C(=O)NCc4ccccc4)CC3)cnc2nc1CC`, the RP-LC retention time amounted to 820 s.

The compound `CCOc1ccc(NC(=O)c2c(C)oc3nc(C)nc(N4CCCC4)c23)cc1` returned an RP-LC retention time of 788 s.

`COc1ccc(CNC(=O)C2(C)Cn3cnc(C(=O)N4CCc5ccccc54)c3C(=O)N2C2CC2)cc1` (centres undefined) displayed an RP-LC retention time of 741 s.

`Cc1[nH]c(C(=O)Nc2cccc(F)c2)c(C)c1S(=O)(=O)N1CCCC1` displayed an RP-LC retention time of 880 s.

Compound `Cc1cc(C)c(NC(=O)Cn2cnc3nc(N4CCCC(C(=O)NC(C)C)C4)sc3c2=O)c(C)c1` (centres undefined) gave an RP-LC retention time of 728 s.

`Cc1cccc(Cl)c1NC(=O)CSc1ccc(N2CCCC(C(=O)NC3CC3)C2)nn1` (centres undefined): the RP-LC retention time was determined as 698 s.

For the compound `Cc1ccc(CNC(=O)Cn2c(C)cc(-c3nnc(-c4ccc(F)cc4)o3)c2C)o1`, the RP-LC retention time was 919 s.

`O=C(NC1CCCCCCC1)C1CCN(C(=O)c2ncn3c2COC(c2ccc(F)cc2)C3)CC1` (centres undefined) showed an RP-LC retention time of 852 s.

`O=C(NC1CCN(c2cc(-c3cccs3)[nH]n2)C1)c1cccc(Br)c1` (centres undefined) registered an RP-LC retention time of 796 s.

In the case of `O=C(NC1CC1)c1[nH]c2ccccc2c1N1CCCC1=O`, the RP-LC retention time worked out at 653 s.

`COc1ccc(S(=O)(=O)N2CCCC(C(=O)NCCO)C2)cc1OC` (centres undefined): the RP-LC retention time stood at 597 s.

For the compound `CCOC(=O)c1cc(S(=O)(=O)N2CCCC2C(=O)Nc2ccc(C)c(C)c2)cn1C` (centres undefined), the RP-LC retention time was determined as 1020 s.

As to `CCCCNC(=O)Cn1nc2c(N3CCSCC3)nccn2c1=O`, the RP-LC retention time turned out to be 728 s.

Compound `CCc1ccc(CNC(=O)C2CCN(c3cnc4nccnc4c3)CC2)cc1` registered an RP-LC retention time of 747 s.

`Cc1cc(NC(=O)C(=O)NCC2(c3cccs3)CC2)no1`: the RP-LC retention time is 802 s.

On to `CSc1ccc(-c2nc3cnccn3c2Nc2cccc(C(=O)NCC3CCCO3)c2)cc1` (centres undefined), for which the RP-LC retention time came to 748 s.

Compound `CSc1nc(N)c(C(=O)NC2CCCCC2)s1` registered an RP-LC retention time of 878 s.

The compound `CN(C)S(=O)(=O)Nc1ccccn1` came in with an RP-LC retention time of 630 s.

As for `CCC(C)OC(=O)C1=C(C)NC(=O)NC1c1ccc(O)c(OC)c1` (centres undefined), the RP-LC retention time came out at 677 s.

`O=C(NCc1csc(-c2cccs2)n1)C1CCN(C(=O)CCC2CCCC2)CC1` came in with an RP-LC retention time of 878 s.

The compound `Cc1ccc(S(=O)(=O)NC2CCN(C(=O)C3CCC3)CC2)cc1` had an RP-LC retention time of 761 s.

`COCCN1C(=O)CCC2(C(=O)NCCc3ccncc3)CCCC=C12` (centres undefined) yielded an RP-LC retention time of 542 s.

`O=C(O)Cn1c(-c2cccnc2)nc2ccccc21`: the RP-LC retention time was 564 s.

With `Cc1cnc(C2CCC2)n1CC1CCN(C(=O)Nc2ccc3c(c2)OCCO3)C1` (centres undefined), the RP-LC retention time was determined as 609 s.

`CCOC(=O)C1=C(CN2CC(C)CC(C)C2)NC(=O)NC1c1ccc(OC(C)C)cc1` (centres undefined) registered an RP-LC retention time of 708 s.

`O=C(Cn1c(=O)c2cccn2c2ccc(F)cc21)NC1CCCCC1` registered an RP-LC retention time of 850 s.

With `CCOc1nc2ccccc2nc1N1CCCC(C(=O)Nc2ccc(C(C)C)cc2)C1` (centres undefined), the RP-LC retention time came to 1240 s.

Turning to `COCCCNC(=O)c1nc2cccnc2n(CC(C)C)c1=O`, the RP-LC retention time came to 728 s.

Turning to `COc1ccc(Br)cc1C1C(C(=O)N2CCOCC2)=C(C)NC2=C1C(=O)CCC2` (centres undefined), the RP-LC retention time worked out at 660 s.

`CCn1cc(-c2nc(-c3ccccc3OC)no2)c(=O)c2cc(F)ccc21` had an RP-LC retention time of 820 s.

For the compound `Cn1c(C(=O)NCCCN2CCCCC2)cc2c(-c3cccs3)nn(-c3ccccc3)c21`, the RP-LC retention time is 746 s.

In turn, `CCCN1C(=O)Cc2cc(C(=O)NCc3ccc(SC)cc3)ccc21` came in with an RP-LC retention time of 829 s.

For the compound `COc1ccc(-c2nc(CNC(=O)c3ccc(-c4noc(C5CC5)n4)cc3)no2)cc1`, the RP-LC retention time stood at 952 s.

In turn, `CN1CCc2[nH]cnc2C12CCN(C(=O)Nc1ccccc1C(F)(F)F)C2` (centres undefined) had an RP-LC retention time of 569 s.

Compound `CC(C)NC(=O)Cn1cnc2ccccc2c1=O` yielded an RP-LC retention time of 609 s.

For `O=S(=O)(Nc1ccc(F)cc1Cl)c1c[nH]c2ncccc12`, the RP-LC retention time came to 740 s.

Take `CCOC(=O)c1ccc(NC(=O)NCC(c2cccnc2)c2c[nH]c3ccccc23)cc1` (centres undefined): the RP-LC retention time turned out to be 814 s.

`O=C1NCCCCCCN(C(=O)c2ccco2)[C@H]2C[C@H](C(=O)N3CCc4ccccc4C3)C[C@@H]12`: the RP-LC retention time is 824 s.

`Cc1ccc(NC(=O)C2CCN(S(=O)(=O)c3cc(C(=O)N4CCC(C)CC4)n(C)c3)CC2)nc1` yielded an RP-LC retention time of 705 s.

Compound `CCOC(=O)C1CCN(c2ncccc2-c2nnc(-c3ccc(Cl)cc3)o2)CC1` came in with an RP-LC retention time of 1240 s.

In turn, `Cc1ccccc1NS(=O)(=O)c1ccc(-c2nnc(C3CCC3)o2)o1` showed an RP-LC retention time of 909 s.

In turn, `CC1(C(=O)NCc2ccc(F)cc2)CN(S(C)(=O)=O)CC(=O)N1Cc1ccc(Cl)cc1` (centres undefined) came in with an RP-LC retention time of 866 s.

With `Cc1ccc(C)c(N2CCN(C(=O)C3CCCN(c4nc5ccccc5n(C)c4=O)C3)CC2)c1` (centres undefined), the RP-LC retention time was 1280 s.

For `Cn1cc(S(=O)(=O)N2CCOCC2)cc1C(=O)Nc1ccccc1`, the RP-LC retention time came out at 801 s.

As to `O=C(NCc1noc(C2CCCC2)n1)c1coc(C2CC2)n1`, the RP-LC retention time turned out to be 821 s.

These data come from the METLIN SMRT retention time set (Domingo-Almenara et al. 2019).
